Assay results published in patent publication US20030195168A1, “Therapeutic agents - III” (priority 2000, published 2003).

Tests used:
[1] = test system: HIV-strain pNL4-3; test: HIV-1 replication in acutely infected PBMC (CA-p24 ELISA); type: cell-based; details: 2.8 μM
Protocol: Experiments were conducted to assess the effect of the compounds of the instant invention on HIV-1 replication in acutely infected T cells. Peripheral blood mononuclear cells (PBMC) were obtained from non-HIV-1, non-HIV-2, non-Hepatitis B/C infected donors, stimulated with phytohemagglutinin-M and grown in culture media supplemented with 10 U/mL interleukin-2. The activated PBMC were infected with […] (Low Titre) and 100 ng (High Titre) of CA-p24 equivalents of the HIV-strain pNL4-3. Cells were infected for two hr after which, the virus was removed and the cells were washed with culture media. Equivalent numbers of cells were seeded into 24 well plates and compounds were added to the cultured cells that included: TPA at 8 riM and 80 nM, Ingenol at 280 nM, PEP003 at 500 nM, 50 nM and 5 nM, or PEP004 at dilutions of 1×10^4 and 1×10^5 from the stock (final concentrations). In addition, uninfected activated PBMC were grown in the presence of TPA (80 nM), Ingenol (280 nM), PEP003 (500 nM) and PEP004 (1×10^4 dilution). Other cultures were neither infected nor treated with any compound, or infected but not treated with any compound. Supernatant was removed from each culture at day 0, 3, 7, and 10. The amount of HIV-1 CA-p24 was determined using a commercially available ELISA assay. Three independent experiments were performed.

[2] = target: T1, PKCα (Homo sapiens, UniProt P17252); type: cell-based; details: HeLa
T1 construct: host or cells: HeLa cells
Protocol: (§1) Five EGFP-PKC isoforms (Clontech) were available for this experiment, enabling the screening of the three predominant PKC families (i.e. classical, novel and atypical PKCs). The members of the various PKC families are α, β, and γ (classical), θ (novel) and ζ (atypical).
(§2) HeLa cells were plated out in a 24-well plate containing coverslips and transfected with PKC isoforms fused to EGFP, using a commercially available effectine-transfection kit (QIAGEN, Pty. Ltd.). Cells were exposed to the transfection reagents for 16-24 hr. Subsequently, transfected cells were treated for one hour with TPA (100 ng/mL), bryostatin-1 (5 pg/mL), PEP003 (2.25 μg/mL; 5 μM) or PEP005 ([…]) 1.5 μM). Following treatment, cells were fixed on coverslips and mounted on glass slides. The slides were subsequently examined visually by fluorescence microscopy, photographed, and over 150 cells were counted/treatment/PKC isoform. Counted cells were classified according to the localisation of the PKC-EGFP fluorescence as either cytoplasmic or plasma membrane using ImagePro™ 4.1 (FIG. 5). […] The number of these cells was also counted.

[3] = target: T2, PKCβ (Homo sapiens, UniProt P05771); test: EGFP-PKC isoform translocation in HeLa cells; type: cell-based; details: for number of PKCβ transfected cells with Golgi-like fluorescence: one hour treatment; for translocation of PKCβ to the plasma membrane: one hour, TPA 100 ng/mL, bryostatin-1 5 pg/mL, PEP003 2.25 μg/mL (5 μM), PEP005 670 μg/mL (1.5 μM)
T2 construct: host or cells: HeLa cells
T2 sequence (P05771 whole entry, species assumed, canonical isoform): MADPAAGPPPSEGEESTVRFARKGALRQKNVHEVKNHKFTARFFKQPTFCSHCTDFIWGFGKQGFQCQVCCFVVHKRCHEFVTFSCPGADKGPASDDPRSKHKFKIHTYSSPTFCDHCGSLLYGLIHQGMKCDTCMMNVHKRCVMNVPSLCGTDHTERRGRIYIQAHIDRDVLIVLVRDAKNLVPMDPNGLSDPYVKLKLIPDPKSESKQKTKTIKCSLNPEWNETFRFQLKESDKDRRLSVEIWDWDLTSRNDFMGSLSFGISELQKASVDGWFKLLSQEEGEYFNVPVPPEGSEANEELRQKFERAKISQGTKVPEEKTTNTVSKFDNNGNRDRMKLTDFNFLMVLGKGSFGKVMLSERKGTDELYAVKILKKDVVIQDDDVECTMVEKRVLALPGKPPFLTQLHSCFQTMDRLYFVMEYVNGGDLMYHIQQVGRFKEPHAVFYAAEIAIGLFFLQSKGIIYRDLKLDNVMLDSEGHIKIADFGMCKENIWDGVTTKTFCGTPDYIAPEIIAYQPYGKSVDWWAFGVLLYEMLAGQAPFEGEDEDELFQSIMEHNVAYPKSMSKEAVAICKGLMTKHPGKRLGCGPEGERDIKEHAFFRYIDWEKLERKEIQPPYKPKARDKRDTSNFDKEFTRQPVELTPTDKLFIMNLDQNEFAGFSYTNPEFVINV
Protocol: as §1
as §2, with “counted. Results are presented as an average and standard deviation of percentages of cells (Table 1).” for “counted.”

[4] = target: T3, PKCγ (Homo sapiens, UniProt P05129); test: EGFP-PKC isoform translocation in HeLa cells; type: cell-based
T3 construct: host or cells: HeLa cells
Protocol: as §1
as §2, with “counted. Results are presented as an average and standard deviation of percentages of cells (Table 1).” for “counted.”

[5] = target: T4, PKCζ (Homo sapiens, UniProt Q05513); test: EGFP-PKC isoform translocation in HeLa cells; type: cell-based; details: one hour, TPA 100 ng/mL, bryostatin-1 5 pg/mL, PEP003 2.25 μg/mL (5 μM), PEP005 670 μg/mL (1.5 μM)
T4 construct: host or cells: HeLa cells
T4 sequence (Q05513 1-592): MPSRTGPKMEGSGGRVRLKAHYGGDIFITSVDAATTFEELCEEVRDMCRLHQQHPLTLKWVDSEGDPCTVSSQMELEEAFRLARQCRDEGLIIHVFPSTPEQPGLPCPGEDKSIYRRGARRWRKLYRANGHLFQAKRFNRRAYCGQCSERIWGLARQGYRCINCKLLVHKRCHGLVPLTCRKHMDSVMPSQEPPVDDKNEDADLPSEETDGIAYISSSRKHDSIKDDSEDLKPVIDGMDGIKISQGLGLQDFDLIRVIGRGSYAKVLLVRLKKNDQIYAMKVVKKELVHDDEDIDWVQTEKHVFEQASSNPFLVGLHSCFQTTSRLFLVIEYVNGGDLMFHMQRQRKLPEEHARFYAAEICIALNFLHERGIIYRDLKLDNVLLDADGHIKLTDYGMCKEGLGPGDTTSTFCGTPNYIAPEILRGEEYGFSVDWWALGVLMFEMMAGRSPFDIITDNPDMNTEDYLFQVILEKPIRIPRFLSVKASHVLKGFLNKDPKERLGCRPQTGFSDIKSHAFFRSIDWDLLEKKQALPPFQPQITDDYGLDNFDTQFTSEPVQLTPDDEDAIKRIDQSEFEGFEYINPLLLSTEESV
Protocol: as §1
as §2, with “counted. Results are presented as an average and standard deviation of percentages of cells (Table 1).” for “counted.”

[6] = target: T5, PKCθ (Homo sapiens, UniProt Q04759); test: EGFP-PKC isoform translocation in HeLa cells; type: cell-based; details: one hour, TPA 100 ng/mL, bryostatin-1 5 pg/mL, PEP003 2.25 μg/mL (5 μM), PEP005 670 μg/mL (1.5 μM)
T5 construct: host or cells: HeLa cells
T5 sequence (Q04759 whole entry, canonical isoform): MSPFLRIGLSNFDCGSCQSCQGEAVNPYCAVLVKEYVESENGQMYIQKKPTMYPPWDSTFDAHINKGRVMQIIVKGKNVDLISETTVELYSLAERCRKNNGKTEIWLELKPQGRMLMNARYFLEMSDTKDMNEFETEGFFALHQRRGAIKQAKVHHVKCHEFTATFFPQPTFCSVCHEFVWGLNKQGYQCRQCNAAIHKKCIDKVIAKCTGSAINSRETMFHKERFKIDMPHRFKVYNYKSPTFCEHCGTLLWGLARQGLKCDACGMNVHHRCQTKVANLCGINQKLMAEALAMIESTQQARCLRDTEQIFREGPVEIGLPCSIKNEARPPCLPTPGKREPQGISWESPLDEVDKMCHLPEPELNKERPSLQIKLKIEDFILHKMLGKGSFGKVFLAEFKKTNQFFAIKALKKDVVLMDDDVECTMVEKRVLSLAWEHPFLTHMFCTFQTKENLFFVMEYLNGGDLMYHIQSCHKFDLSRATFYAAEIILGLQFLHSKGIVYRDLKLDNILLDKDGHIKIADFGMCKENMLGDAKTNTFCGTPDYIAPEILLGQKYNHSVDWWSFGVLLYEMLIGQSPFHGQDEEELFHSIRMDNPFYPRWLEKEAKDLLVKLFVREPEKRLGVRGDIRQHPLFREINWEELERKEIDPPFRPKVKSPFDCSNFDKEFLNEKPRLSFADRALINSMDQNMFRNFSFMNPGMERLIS
Protocol: as §1
as §2, with “counted. Results are presented as an average and standard deviation of percentages of cells (Table 1).” for “counted.”

[7] = test system: adenovirus 5; test: Adenovirus 5 replication in human melanoma cells; type: cell-based; details: 2 days
Source text: Human melanoma cells were infected with ten-fold dilutions of adenovirus 5 in culture, treated with dilutions of PEP005, PEP006, PEP008 and PEP010 and adenovirus replication determined 2 days later by immunhistochemical detection of virus-replicating cells.

[8] = test system: peripheral blood mononuclear cells (PBMCs); test: Phagocytosis with fluorescent beads; type: cell-based; details: whole heparinized blood, 30 min at 37° C.
Protocol: Phagocytosis by peripheral blood mononuclear cells (PBMCs) was assayed (Steinkamp et al., 1982) using 1 μm Fluoresbrite™ yellow-green fluorescent latex spheres (Polysciences, Inc., Warrington, Pa.). A sample of whole, heparinized blood was treated with drug and 5×10E7 fluorescent latex beads in 10 μL of PBS added per mL of suspension. Cells were incubated and maintained in suspension for 30 min by means of a shaker platform at 37° C. The stirnulated and non-stimulated samples were then lysed to isolate PBMCs. The PBMCs were run on the flow cytometer measuring FITC (excitation at 488 nm, emission at 525±20 nm), gated for fluorescence (phagocytosed spheres) and light scatter (cell size).

[9] = test system: MM96L human melanoma cells; test: Leukocyte killing of tumor cells, [3H]-thymidine labelling; type: cell-based; details: 100:1 effector:target, 48 hr
Protocol: (§3) Leukocytes obtained by lysis of human peripheral blood were added to 5000 MM96L human melanoma cells or 7000 neonatal foreskin fibroblasts per microtitre well at effector: target ratios of 1000, 100 and 10:1. Ing9 (60 ng/mL) was added and after 48 hr incubation the cultures were washed and labelled with [3H]-thymidine for 2 hr. […] Untreated leukocytes had no effect on cell survival.
as §3, with “The target cells had been treated with 60 ng/mL PEP008 for 20 hr beforehand,” for “Ing9 (60 ng/mL) was added”, “washed and the medium replaced before the leukocytes were added. After” for “after”, “incubation with the leukocytes” for “incubation”

[10] = test system: neonatal foreskin fibroblasts; test: Leukocyte killing of normal cells, [3H]-thymidine labelling; type: cell-based, human; details: 100:1 effector:target, 48 hr
Protocol: as §3
as §3, with “The target cells had been treated with 60 ng/mL PEP008 for 20 hr beforehand,” for “Ing9 (60 ng/mL) was added”, “washed and the medium replaced before the leukocytes were added. After” for “after”, “incubation with the leukocytes” for “incubation”

[11] = test system: Peripheral blood mononuclear cells (PBMC); test: Respiratory burst (H2O2) in PBMC, DCFH-DA flow cytometry; type: cell-based
Protocol: Experiments were also carried out using 2′,7′-dichlorofluorescein diacetate (DCFH-DA) to measure the production of H2O2.(J P Robinson, Oxidative burst methods, in Handbook of Flow Cytometry Methods, Wiley-Liss Inc, pp147-149, 1993). H2O2 oxidizes the non-fluorescent probe (DCFH-DA) to a fluorescent probe that can then be detected by a flow cytometer. Peripheral blood mononuclear cells (PBMC) were extracted from a donor blood sample by lysis of heparinized blood and used in a suspension of 1×10^6/mL of phosphate buffer, pH 7.3. The cells were then incubated with DCFH-DA (1 μL/mL of 20 mM stock) for 15 minutes to allow it to be taken up and trapped by hydrolysis with cellular esterases. The cells were then stimulated by test compounds for 15 min at 37° C. Controls included in the experiment were unloaded control (cells with no DCFH-DA) and loaded control (cells with DCFH-DA, but no stimulation). These were used to monitor the non-specific oxidation of unstimulated cells. The cells were then analyzed on the flow cytometer (excitation at 488 nm, emission at 525±20 nm), gating each sample for individual cell populations-granulocytes, monocytes and lymphocytes (Table 3).

[12] = test system: phorbol ester binding site of PKC; test: [3H]-phorbol dibutyrate competition assay on rat brain homogenate
Protocol: A competition assay was performed to determine whether the diterpene esters of the instant invention bind to the phorbol ester binding site of PKC. […] This binding was not blocked by co-incubation with bisindolylmaleimide.

[13] = test system: MM96L cells; test: Effect of Euphorbiaceae saps on MM96L cells (cytotoxicity, bipolar dendritic phenotype); type: cell-based; details: 1 μg/mL or 10 μg/mL
Protocol: Sap was collected from Synadenium grantii, Synadenium compactum, Mondenium lugardae, Mondenium guentheri, Endadenium gossweileni, and E. peplus and serially diluted ten-fold up to 10^−7into sterile 1.5 mL Eppendorf™ tubes using growth medium. […] After 3 days, cells were examined for cytotoxicity or differentiation to a bipolar dendritic phenotype.

[14] = test system: rat brain PKC; test: PepTag non-radioactive PKC kinase activity assay; details: FIG. 1; TPA 100-0.01 ng/ml; ether extract final dilution 1 in 5; aqueous layer and crude sap diluted 1/25
Protocol: The kinase activity of rat brain PKC (Promega) was determined using the Peptag™ Non-Radioactive Protein Kinase Kit (Promega). Using agarose gel electrophoresis the technique visualises the opposing electrostatic charge of a fluorescently labeled peptide ([sequence]) compared to the phosphorylated version of the same peptide.
The reaction mixture was separated by gel electrophoresis, showing migration of the unreacted substrate (a) to the anode (top), and the product (b), which is more negatively charged because of phosphorylation by PKC, moving towards the cathode (bottom).

[15] = target cells pre-treated with 60 ng/mL for 20 hr, washed

CC1=C[C@]23C(=O)[C@@H](C=C(CO)[C@@H](O)[C@]2(O)[C@H]1O)[C@H]1[C@@H](C[C@H]3C)C1(C)C [Ingenol]
reduction of HIV-1 replication rate [1]: approximately 35%

C/C=C(/C)C(=O)O[C@H]1C(C)=C[C@]23C(=O)[C@@H](C=C(CO)[C@@H](O)[C@]12O)[C@H]1[C@@H](C[C@H]3C)C1(C)C [PEP005, 20-hydroxy-ingenol-3-angelate]
number of PKCα transfected cells displaying Golgi-like fluorescence ([2]; one hour treatment): increase in the number of cells displaying Golgi-like fluorescence
translocation of PKCα to the plasma membrane ([2]; one hour, TPA 100 ng/mL, bryostatin-1 5 pg/mL, PEP003 2.25 μg/mL (5 μM)): translocated from the cytoplasm to the plasma membrane
number of PKCβ transfected cells with Golgi-like fluorescence [3]: decreases the number of cells with PKCβ concentrated in the Golgi
translocation of PKCβ to the plasma membrane [3]: translocated from the cytoplasm to the plasma membrane
number of PKCγ transfected cells displaying Golgi-like fluorescence ([4]; one hour treatment): increase in the number of cells displaying Golgi-like fluorescence
translocation of PKCγ to the plasma membrane ([4]; one hour, TPA 100 ng/mL, bryostatin-1 5 pg/mL, PEP003 2.25 μg/mL (5 μM), PEP005 670 μg/mL (1.5 μM)): translocated from the cytoplasm to the plasma membrane
translocation of PKCζ [5]: fail to induce translocation
translocation of PKCθ [6]: does not induce any change
increase of adenovirus replication (number of stained cells) ([7]; 67 ng/mL): 344%
stimulation of phagocytosis of fluorescent latex beads [8]: stimulate phagocytosis in PBMCs

C/C=C(/C)C(=O)O[C@H]1C(C)=C[C@]23C(=O)[C@@H](C=C(CO)[C@@H](O)[C@]12O)[C@H]1[C@@H](C[C@H]3C)C1(C)C [PEP006, Ingenol-3-angelate]
increase of adenovirus replication (number of stained cells) ([7]; 295 ng/mL): 256%
stimulation of phagocytosis of fluorescent latex beads [8]: stimulate phagocytosis in PBMCs

C/C=C(/C)C(=O)O[C@H]1C(C)=C[C@]23C(=O)[C@@H](C=C(COC(C)=O)[C@@H](O)[C@]12O)[C@H]1[C@@H](C[C@H]3C)C1(C)C [PEP008, 20-O-acetyl-ingenol-3-angelate]
increase of adenovirus replication (number of stained cells) ([7]; 226 ng/mL): 248%
stimulation of phagocytosis of fluorescent latex beads [8]: stimulate phagocytosis in PBMCs
survival of melanoma cells ([9]; 60 ng/mL added with leukocytes): 9%
survival of melanoma cells [9, 15]: 12%
survival of normal fibroblasts ([10]; 60 ng/mL added with leukocytes): 100%
survival of normal fibroblasts [10, 15]: 100%

CCC/C=C/C=C/C(=O)O[C@H]1/C(=C/C(=O)OC)C[C@H]2C[C@H]([C@@H](C)O)OC(=O)C[C@H](O)C[C@@H]3C[C@H](OC(C)=O)C(C)(C)[C@](O)(C[C@@H]4C/C(=C/C(=O)OC)C[C@H](/C=C/C(C)(C)[C@]1(O)O2)O4)O3 [bryostatin-1]
number of PKCβ transfected cells with Golgi-like fluorescence [3]: decreases the number of cells with PKCβ concentrated in the Golgi
translocation of PKCβ to the plasma membrane [3]: but not with bryostatin-1
translocation of PKCζ [5]: fail to induce translocation
translocation of PKCθ [6]: translocated
induction of a respiratory burst (H2O2, DCFH-DA) ([11]; 15 min at 37° C., granulocytes, monocytes, lymphocytes): All compounds except Bryostatin induced a respiratory burst

bisindolylmaleimide
binding to the phorbol ester binding site of PKC [12]: does not
block of the respiratory burst by PKC inhibitor ([11]; 10 μg/mL or 1 μg/mL, added at the same time as test compounds): blocked the respiratory burst
effect of PKC inhibitor on sap-induced differentiation of MM96L cells [13]: this differentiation is inhibited

phosphatidyl serine
activation of PKC (phosphorylation of fluorescent PepTag substrate) [14]: strong activation
